Source: patent US20210220408A1, “ARYL HYDROCARBON RECEPTOR ANTAGONISTS AND METHODS OF USE” (Magenta Therapeutics Inc., priority 2018, published 2021)

Molecular target: T1, aryl hydrocarbon receptor (AHR) (Homo sapiens, UniProt P35869)
T1 sequence (P35869 11-848): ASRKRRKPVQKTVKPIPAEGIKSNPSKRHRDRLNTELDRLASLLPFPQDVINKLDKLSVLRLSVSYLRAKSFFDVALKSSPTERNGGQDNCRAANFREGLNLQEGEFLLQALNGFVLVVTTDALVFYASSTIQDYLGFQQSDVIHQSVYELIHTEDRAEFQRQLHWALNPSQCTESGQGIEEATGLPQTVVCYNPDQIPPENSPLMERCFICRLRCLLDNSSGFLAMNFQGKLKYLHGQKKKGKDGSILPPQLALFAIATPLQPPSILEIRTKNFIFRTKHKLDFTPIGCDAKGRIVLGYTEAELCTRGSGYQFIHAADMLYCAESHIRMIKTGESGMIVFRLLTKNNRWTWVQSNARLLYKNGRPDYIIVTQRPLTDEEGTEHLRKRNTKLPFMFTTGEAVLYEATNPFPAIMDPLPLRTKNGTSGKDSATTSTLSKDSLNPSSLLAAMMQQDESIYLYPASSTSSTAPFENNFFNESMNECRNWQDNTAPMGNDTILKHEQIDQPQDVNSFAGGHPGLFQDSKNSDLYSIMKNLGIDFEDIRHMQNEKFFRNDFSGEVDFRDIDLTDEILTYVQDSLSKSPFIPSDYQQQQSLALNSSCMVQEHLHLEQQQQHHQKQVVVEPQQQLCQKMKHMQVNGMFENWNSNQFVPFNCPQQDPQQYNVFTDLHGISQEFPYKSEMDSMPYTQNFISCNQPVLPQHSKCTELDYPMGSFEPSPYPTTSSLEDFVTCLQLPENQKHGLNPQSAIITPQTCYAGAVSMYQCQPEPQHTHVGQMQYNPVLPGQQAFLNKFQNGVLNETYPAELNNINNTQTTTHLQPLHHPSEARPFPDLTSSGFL
Test: DRE-Luciferase reporter high-throughput screen (AHR antagonist, VAF347-activated)

SMILES	IC50 [nM]
Cc1c(-c2nc(-c3ccc(C(C)(C)C)cc3)no2)n(C)oc1=O [87B]	200 to 500
O=[N+]([O-])c1ccc(-n2cnc(-c3ccc(F)cc3)c2)nc1 [52B]	200 to 500
CC(C)Nc1ccc(-n2nc3ccccc3[n+]2[O-])cc1 [176A]	1000 to 2000
Fc1ccccc1OCc1cnn(-c2ccccc2)c1 [54B]	500 to 1000
CN(C)c1cccc(-c2nnc(-c3ccc(C(F)(F)F)cc3)[nH]2)c1 [compound 97]	200 to 500
Cc1c(C(=O)Nc2ccccc2)nnn1Cc1ccccc1 [26A]	1000 to 2000
Ic1ccc(-c2cnc(-c3ccncc3)o2)cc1 [76B]	200 to 500
Cc1ccc(-c2nnc(-c3ccncc3)[nH]2)c([N+](=O)[O-])c1 [109A]	1000 to 2000
Cc1csc(Nc2nc(N)c(C(=O)Nc3cc(Cl)ccc3F)o2)n1 [compound 37]	500 to 1000
Cc1cc(-c2ccccc2)nc2c1/C(=N\O)CC(C)(C)C2 [104B]	500 to 1000
COc1cccc(Cn2c3c(cc(NC(=O)c4ccc(C)cc4)c2=O)C(=O)CCC3)c1 [44A]	1000 to 2000
CCN(CC)c1ccc(NC(=O)c2cccnc2O)cc1 [12A]	1000 to 2000
O=C(Nc1ccc2c(c1)ncn2-c1ccccc1)c1ccc(Cl)cc1 [39A]	1000 to 2000
CCCc1c(C)nc(Nc2nc(C)c3cc(C)cc(C)c3n2)[nH]c1=O [163A]	1000 to 2000
CN(c1nnc(NC(=O)Nc2ccccc2C(F)(F)F)s1)C1CCCCC1 [145A]	1000 to 2000
CC(=O)Oc1ccc2c(=O)c(-c3cnn(-c4ccccc4)c3)coc2c1C [56B]	500 to 1000
Cc1cc2ccccc2n2c(SCC(=O)Nc3ccccc3F)nnc12 [187A]	> 2000
O=C(Nc1ccc2[nH]c(-c3ccc(Br)o3)nc2c1)c1ccc([N+](=O)[O-])cc1 [41A]	> 2000
O=C(Nc1ccc(-c2cnc(C3CC3)o2)cc1)c1cccc(F)c1 [2A]	> 2000
N#Cc1ccccc1COc1ccc(-n2cnnn2)cc1 [compound 154]	500 to 1000
CN(C)C(=O)Oc1ccc(-c2cn3cc(C(F)(F)F)ccc3n2)cc1 [compound 103]	500 to 1000
CSc1ccccc1NC(=O)c1ccc(-c2ccccc2)cc1 [4B]	> 2000
Cc1nn(C)cc1-c1nnc(-c2cccc(C(F)(F)F)c2)o1 [138A]	1000 to 2000
Cc1cn2cc(-c3ccc(F)cc3)nc2s1 [compound 67]	500 to 1000

SMILES	IC50 [nM]
O=C(Nc1ccc(N2CCC(C(F)(F)F)CC2)nc1)c1cccc(Cl)c1 [13A]	> 2000
O=C(Nc1ncccc1Br)c1cc(-n2cccn2)ccn1 [17A]	1000 to 2000
COc1ccccc1NC(=O)c1sc2nc(N3CCOCC3)c3c(c2c1N)CCCC3 [52A]	1000 to 2000
Cc1cc(C)c2c(NCc3ccccc3F)[nH]nc2n1 [122A]	1000 to 2000
Cc1cc(C)c(C#N)c(SCc2cc(-c3cccs3)on2)n1 [79B]	1000 to 2000
CC(=O)N(CCn1nc(C)cc1C)c1nc2c(F)cc(F)cc2s1 [compound 93]	200 to 500
CN1/C(=N/c2ccccc2)SCC1(O)c1ccc([N+](=O)[O-])cc1 (centres unmarked) [compound 142]	200 to 500
c1ccc(-c2nc(COc3cccc(-n4cnnn4)c3)cs2)cc1 [54A]	1000 to 2000
O=C(Nc1cccc(F)c1)Nc1ccc2c(c1)C(=O)OC2 [96B]	> 2000
CC(=O)Nc1cc(Cl)c(-c2ccc([N+](=O)[O-])o2)c(Cl)c1 [101B]	200 to 500
COc1c(C(=O)Nc2ccc(Cl)cc2)ccc2ccccc12 [20B]	500 to 1000
Cc1c(Br)c(C(=O)N2CCc3ccccc32)nn1C [61B]	1000 to 2000
Cc1ccc2cc(NC(=O)c3cccc4c3OC(C)(C)C4)ccc2n1 [50A]	> 2000
Cc1ccc(OCc2cc(=O)n3ccsc3n2)cc1C [113B]	1000 to 2000
CC(C)c1nc2ccc(NC(=O)c3ccc(F)cc3)cc2[nH]1 [37A]	1000 to 2000
c1ccc(-c2ccc(OCc3ccno3)cc2)cc1 [130A]	1000 to 2000
COCCN1Cc2cccc(C(=O)Nc3ccc(C)c(F)c3)c2C1=O [compound 32]	200 to 500
Cc1cnn(Cc2ncc(-c3ccccc3Br)o2)c1 [77B]	> 2000
C=C(Cc1nnc(C(C)C)s1)c1cn(CCOC)cc2c(=O)n(-c3ccccc3)nc1-2 [175A]	> 2000
COc1ccccc1-c1nc(-c2ccc(CN(C)C(C)=O)cc2)cs1 [compound 50]	< 200
Cc1nc2nc(SCCOc3ccc(C#N)cc3)nn2c(C)c1C [125A]	1000 to 2000
Cn1c(N)c(-c2csc(-c3cccc(Cl)c3)n2)c(=O)n(C)c1=O [36B]	1000 to 2000
CC(=O)N1CC=C(c2ccc(OCc3ccc(C#N)cc3)cc2)CC1 [compound 143]	200 to 500
